Key:
[1] = Determination of metabolic stability with human liver microsomes; settings: pooled human liver microsomes; for half-life at 1 μM: human, pH 7.6
Description: Determination of Metabolic Stability with Human Liver Microsomes
The metabolic degradation of the test compound is assayed at 37° C. with pooled human liver microsomes. The final incubation volume of 100 μl per time point contains TRIS buffer pH 7.6 (0.1 M), magnesium chloride (5 mM), microsomal protein (1 mg/ml) and the test compound at a final concentration of 1 μM. Following a short preincubation period at 37° C., the reactions are initiated by addition of beta-nicotinamide adenine dinucleotide phosphate, reduced form (NADPH, 1 mM) and terminated by transferring an aliquot into acetonitrile after different time points. Additionally, the NADPH-independent degradation is monitored in incubations without NADPH, terminated at the last time point. The [%] remaining test compound after NADPH independent incubation is reflected by the parameter c (control) (metabolic stability). The quenched incubations are pelleted by centrifugation (10,000 g, 5 min). An aliquot of the supernatant is assayed by LC-MS/MS for the amount of parent compound.
The half-life (t½ INVITRO) is determined by the slope of the semilogarithmic plot of the concentration-time profile.

[2] = molecular target: recombinant human Cathepsin K (Homo sapiens (Human), UniProt P43235); test: Inhibition of human Cathepsin K; assay type: biochemical; settings: substrate Z-Gly-Pro-Arg-AMC
How it was run: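 Fluorogenic Z-Gly-Pro-Arg-AMC cleavage, 60 min at room temperature, after a 10 min enzyme–compound preincubation (enzyme 2 ng/μL; compound 0.1 nM–100 μM; 1% DMSO). Buffer pH 5.5 with sodium acetate, EDTA and L-cysteine; procathepsin first activated 30 min at pH 3.5. E64 (1 μM) stop; IC50 derived from percent of vehicle signal minus background (Ex 360/Em 460 nm).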

[3] = molecular target: recombinant human DPPI (Cathepsin C) (Homo sapiens (Human), UniProt P53634); test: Inhibition of human DPPI (Cathepsin C); assay type: biochemical; settings: substrate Gly-Arg-AMC
recombinant human DPPI (Cathepsin C), sequence (P53634 231-394): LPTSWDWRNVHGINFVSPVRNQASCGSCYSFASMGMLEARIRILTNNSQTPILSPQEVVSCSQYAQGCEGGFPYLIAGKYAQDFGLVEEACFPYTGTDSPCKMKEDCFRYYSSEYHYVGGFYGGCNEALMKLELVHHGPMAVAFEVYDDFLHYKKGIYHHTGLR
recombinant human DPPI (Cathepsin C), sequence (P53634 395-463): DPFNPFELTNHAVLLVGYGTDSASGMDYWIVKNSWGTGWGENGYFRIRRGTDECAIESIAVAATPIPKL
recombinant human DPPI (Cathepsin C), sequence (P53634 25-134): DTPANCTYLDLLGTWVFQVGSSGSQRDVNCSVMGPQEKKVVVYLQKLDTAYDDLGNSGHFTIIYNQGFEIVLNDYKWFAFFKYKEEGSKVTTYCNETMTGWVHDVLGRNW
How it was run: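 Fluorescence read after 30 min room-temperature turnover of 50 μM (final) substrate by recombinant human cathepsin C, pH 6.0 MES/NaCl/DTT/BSA buffer, quenched by Gly-Phe-DMK (1 μM final). Activity as percent of vehicle after background subtraction, used for IC50.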

recombinant human Cathepsin K, sequence (P43235 115-329): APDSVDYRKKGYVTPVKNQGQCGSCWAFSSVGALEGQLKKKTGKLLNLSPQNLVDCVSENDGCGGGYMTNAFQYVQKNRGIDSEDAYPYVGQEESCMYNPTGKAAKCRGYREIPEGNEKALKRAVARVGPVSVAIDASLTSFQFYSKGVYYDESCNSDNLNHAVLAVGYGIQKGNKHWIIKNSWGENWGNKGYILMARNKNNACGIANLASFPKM

SMILES	half-life at 1 μM [1]	IC50 [2]	IC50 [3]	In vitro stability in human liver microsome incubations t½ ([1]; 1 μM test compound, 37° C., NADPH)
N#Cc1ccc(-c2ccc(CC(C#N)NC(=O)[C@H]3N[C@@H]4CC[C@H]3C4)c(F)c2)cc1F (stereo partly drawn) [Example 35]	> 2.17 h	4.4 µM	0.0046 µM	
N#Cc1ccc(-c2ccc(C[C@@H](C#N)NC(=O)[C@H]3N[C@H]4C[C@@H]3[C@@H]3C[C@@H]34)c(F)c2)s1 [Example 40]	> 2.17 h	7.8 µM	0.0051 µM	
N#CC(Cc1ccc(-c2ccc3c(c2)CNC3=O)cc1F)NC(=O)[C@H]1N[C@@H]2CC[C@H]1C2 (stereo partly drawn) [Example 41]	> 2.17 h	4.7 µM	0.0053 µM	
CN1CCc2cc(-c3ccc(C[C@@H](C#N)NC(=O)[C@H]4N[C@@H]5CC[C@H]4C5)c(F)c3)ccc2C1=O [Example 42]	> 2.17 h	2.9 µM	0.0053 µM	
N#C[C@H](Cc1ccc(N2CCN3CCOCC3C2)cc1F)NC(=O)[C@H]1N[C@@H]2CC[C@H]1C2 (stereo partly drawn) [Example 43]	> 2.17 h	2.2 µM	0.0056 µM	
N#C[C@H](Cc1ccc(-n2cc(COc3ccccc3)nn2)cc1F)NC(=O)[C@H]1N[C@@H]2CC[C@H]1C2 [Example 47]	1.4 h	3.4 µM	0.0072 µM	
N#CC(Cc1ccc(-c2ccc3c(c2)CCNC3=O)cc1F)NC(=O)[C@H]1N[C@@H]2CC[C@H]1C2 (stereo partly drawn) [Example 49]	> 2.17 h	6.5 µM	0.0073 µM	
N#C[C@H](Cc1ccc(-c2cnn(CC3CCCO3)c2)cc1F)NC(=O)[C@H]1N[C@@H]2CC[C@H]1C2 (stereo partly drawn) [Example 50]	> 2.17 h	3.6 µM	0.0074 µM	
CS(=O)(=O)c1cc(-c2cc(F)c(CC(C#N)NC(=O)[C@H]3N[C@@H]4CC[C@H]3C4)c(F)c2)ccc1C#N (stereo partly drawn) [Example 52]	> 2.17 h	17 µM	0.0076 µM	
N#CC(Cc1ccc(-c2cccc(C(N)=O)c2)cc1F)NC(=O)[C@H]1N[C@@H]2CC[C@H]1C2 (stereo partly drawn) [Example 53]	> 2.17 h	4.1 µM	0.0079 µM	
CS(=O)(=O)c1ccc(-c2ccc(CC(C#N)NC(=O)[C@H]3N[C@@H]4CC[C@H]3C4)c(F)c2)cc1 (stereo partly drawn) [Example 54]	> 2.17 h	4.5 µM	0.0082 µM	
CC(=O)N1CCC(Cn2cc(-c3ccc(C[C@@H](C#N)NC(=O)[C@H]4N[C@@H]5CC[C@H]4C5)c(F)c3)cn2)CC1 [Example 55]	> 2.17 h	3.9 µM	0.0082 µM	
N#C[C@H](Cc1ccc(-c2cnn(CC3CCOCC3)c2)cc1F)NC(=O)[C@H]1N[C@@H]2CC[C@H]1C2 [Example 57]	1.58 h	2.3 µM	0.0083 µM	
Cc1cc(-c2ccc(CC(C#N)NC(=O)[C@H]3N[C@@H]4CC[C@H]3C4)c(F)c2)n[nH]1 (stereo partly drawn) [Example 58]	> 2.17 h	11.1 µM	0.0084 µM	
CS(=O)(=O)Nc1ccc(-c2ccc(CC(C#N)NC(=O)[C@H]3N[C@@H]4CC[C@H]3C4)c(F)c2)cc1 (stereo partly drawn) [Example 62]	> 2.17 h	3.9 µM	0.0091 µM	
N#C[C@H](Cc1ccc(-n2cc(C3CC3)nn2)cc1F)NC(=O)[C@H]1N[C@@H]2CC[C@H]1C2 [Example 67]	1.48 h	4.6 µM	0.0096 µM	
CCS(=O)(=O)c1ccc(-c2ccc(CC(C#N)NC(=O)[C@H]3N[C@@H]4CC[C@H]3C4)c(F)c2)cc1 (stereo partly drawn) [Example 71]	> 2 h	4.8 µM	0.0108 µM	
CN1Cc2cc(-c3ccc(CC(C#N)NC(=O)[C@H]4N[C@@H]5CC[C@H]4C5)c(F)c3)ccc2C1=O (stereo partly drawn) [Example 76]	1.4 h	5.3 µM	0.0117 µM	
COc1ccc(-c2cn(-c3ccc(C[C@@H](C#N)NC(=O)[C@H]4N[C@@H]5CC[C@H]4C5)c(F)c3)nn2)cc1OC [Example 77]	> 2.17 h	5.3 µM	0.0119 µM	
N#CC(Cc1ccc(-c2cnn(-c3ccccc3)c2)cc1F)NC(=O)[C@H]1N[C@@H]2CC[C@H]1C2 (stereo partly drawn) [Example 78]		6.7 µM	0.012 µM	2.17 h
CCC(C)(O)Cc1cn(-c2ccc(C[C@@H](C#N)NC(=O)[C@H]3N[C@@H]4CC[C@H]3C4)c(F)c2)nn1 (stereo partly drawn) [Example 82]	> 2.17 h	5.4 µM	0.0131 µM	
N#CC(Cc1ccc(-c2ccc(C(N)=O)cc2)cc1F)NC(=O)[C@H]1N[C@@H]2CC[C@H]1C2 (stereo partly drawn) [Example 83]	> 2.17 h	5.1 µM	0.0133 µM	
CS(=O)(=O)c1ccc(-c2ccc(C[C@@H](C#N)NC(=O)[C@H]3N[C@@H]4CC[C@H]3C4)c(F)c2)c(F)c1 [Example 86]	> 2.17 h	6.8 µM	0.0141 µM	

SMILES	half-life at 1 μM [1]	IC50 [2]	IC50 [3]	In vitro stability in human liver microsome incubations t½ ([1]; 1 μM test compound, 37° C., NADPH)
CS(=O)(=O)c1cccc(-c2ccc(CC(C#N)NC(=O)[C@H]3N[C@@H]4CC[C@H]3C4)c(F)c2)c1 (stereo partly drawn) [Example 88]	> 2.17 h	8.8 µM	0.0152 µM	
CCC(O)Cc1cn(-c2ccc(C[C@@H](C#N)NC(=O)[C@H]3N[C@@H]4CC[C@H]3C4)c(F)c2)nn1 (stereo partly drawn) [Example 89]	> 2.17 h	5.4 µM	0.0156 µM	
CC(=O)c1cn(-c2ccc(C[C@@H](C#N)NC(=O)[C@H]3N[C@@H]4CC[C@H]3C4)c(F)c2)nn1 [Example 90]	> 2.17 h	3.5 µM	0.016 µM	
CS(=O)(=O)N1CCN(c2ccc(C[C@@H](C#N)NC(=O)[C@H]3N[C@@H]4CC[C@H]3C4)c(F)c2)CC1 [Example 91]	> 2.17 h	2.5 µM	0.017 µM	
N#C[C@H](Cc1ccc(-c2ccc3c(c2)C(=O)NC3)cc1F)NC(=O)[C@H]1N[C@@H]2CC[C@H]1C2 [Example 95]	> 2.17 h	3.6 µM	0.0192 µM	
N#C[C@H](Cc1ccc(-c2cc(-c3ccccc3)no2)cc1F)NC(=O)[C@H]1N[C@@H]2CC[C@H]1C2 [Example 96]	1.37 h	5.5 µM	0.0198 µM	
N#CC(Cc1ccc(-c2ncc(Cl)cn2)cc1F)NC(=O)[C@H]1N[C@@H]2CC[C@H]1C2 (stereo partly drawn) [Example 98]	> 2.17 h	8.4 µM	0.0203 µM	
N#C[C@H](Cc1ccc(-n2cc(CCN3CCOCC3)nn2)cc1F)NC(=O)[C@H]1N[C@@H]2CC[C@H]1C2 [Example 99]	> 2.17 h	2.9 µM	0.0211 µM	
Cn1nc(C(F)(F)F)cc1-c1ccc(C[C@@H](C#N)NC(=O)[C@H]2N[C@@H]3CC[C@H]2C3)c(F)c1 [Example 100]	> 2.17 h	8.2 µM	0.0223 µM	
N#CC(Cc1ccc(-c2cnc(Cl)cn2)cc1F)NC(=O)[C@H]1N[C@@H]2CC[C@H]1C2 (stereo partly drawn) [Example 102]	> 2.17 h	4.3 µM	0.0248 µM	
CCOCc1cn(-c2ccc(C[C@@H](C#N)NC(=O)[C@H]3N[C@@H]4CC[C@H]3C4)c(F)c2)nn1 [Example 105]	> 2.17 h	5.2 µM	0.025 µM	
N#C[C@H](Cc1ccc(-n2cc(COC(=O)N3CCCC3)nn2)cc1F)NC(=O)[C@H]1N[C@@H]2CC[C@H]1C2 [Example 106]	> 2.17 h	5.3 µM	0.0259 µM	
N#CC(Cc1ccc(-c2ccc(Cl)nn2)cc1F)NC(=O)[C@H]1N[C@@H]2CC[C@H]1C2 (stereo partly drawn) [Example 108]	> 2.17 h	9.4 µM	0.0264 µM	
CC(C)C(O)Cc1cn(-c2ccc(C[C@@H](C#N)NC(=O)[C@H]3N[C@@H]4CC[C@H]3C4)c(F)c2)nn1 (stereo partly drawn) [Example 109]	> 2.17 h	4.5 µM	0.0269 µM	
CCn1nccc1-c1ccc(C[C@@H](C#N)NC(=O)[C@H]2N[C@@H]3CC[C@H]2C3)c(F)c1 [Example 110]	> 2.17 h	9.8 µM	0.0286 µM	
COCc1cn(-c2ccc(C[C@@H](C#N)NC(=O)[C@H]3N[C@@H]4CC[C@H]3C4)c(F)c2)nn1 [Example 111]	> 2.17 h	4.3 µM	0.0318 µM	
COCCOCc1cn(-c2ccc(C[C@@H](C#N)NC(=O)[C@H]3N[C@@H]4CC[C@H]3C4)c(F)c2)nn1 [Example 112]	> 2.17 h	5.6 µM	0.0333 µM	
N#C[C@H](Cc1ccc(-c2cc[nH]n2)cc1F)NC(=O)[C@H]1N[C@@H]2CC[C@H]1C2 [Example 114]	> 2.17 h	6.8 µM	0.0367 µM	
N#CC(Cc1ccc(-c2cnn(C3CCOCC3)c2)cc1F)NC(=O)[C@H]1N[C@@H]2CC[C@H]1C2 (stereo partly drawn) [Example 116]	> 2.17 h	7.7 µM	0.0391 µM	
CN1CCC(c2ccc(C[C@@H](C#N)NC(=O)[C@H]3N[C@@H]4CC[C@H]3C4)c(F)c2)CC1 [Example 117]	> 2.17 h	2.7 µM	0.0396 µM	
N#Cc1ccc(-c2ccc(C[C@@H](C#N)NC(=O)[C@H]3N[C@H]4C[C@@H]3[C@@H]3C[C@@H]34)c(F)c2)cc1F [Example 132]	> 2.17 h	12.2 µM	0.0189 µM	
N#C[C@H](Cc1ccc(-c2ccc(S(N)(=O)=O)cc2)cc1F)NC(=O)[C@H]1N[C@H]2C[C@@H]1[C@@H]1C[C@@H]12 [Example 136]	> 2.17 h	6.2 µM	0.0102 µM	

From patent publication US8987249B2, “Substituted 2-Aza-bicyclo[2.2.1]heptane-3-carboxylic acid (benzyl-cyano-methyl)-amides inhibitors of Cathepsin C” (Boehringer Ingelheim International GmbH, priority 2013, dated 2015)
